Measured values published in ChEMBL document CHEMBL5126606, “Sodium-Glucose Cotransporter Inhibitors as Antidiabetic Drugs: Current Development and Future Perspectives” (J Med Chem, 2022).

What was measured:
[1] = Oral bioavailability in C57BL/6J mouse at 10 mg/kg measured upto 24 hrs by LC-MS/MS analysis; type: ADME, organism-based; settings: in vivo
[2] = Half life in C57BL/6J mouse at 10 mg/kg,po measured upto 24 hrs by LC-MS/MS analysis; type: ADME, organism-based; settings: in vivo
[3] = molecular target: T1, Sodium/glucose cotransporter 2 (Homo sapiens, UniProt P31639); assay: Inhibition of full length N-terminal HA-tagged human SGLT2 expressed in HEK293 cells assessed as inhibition of [14C]AMG uptake; type: cell-based
T1 sequence (P31639 whole entry): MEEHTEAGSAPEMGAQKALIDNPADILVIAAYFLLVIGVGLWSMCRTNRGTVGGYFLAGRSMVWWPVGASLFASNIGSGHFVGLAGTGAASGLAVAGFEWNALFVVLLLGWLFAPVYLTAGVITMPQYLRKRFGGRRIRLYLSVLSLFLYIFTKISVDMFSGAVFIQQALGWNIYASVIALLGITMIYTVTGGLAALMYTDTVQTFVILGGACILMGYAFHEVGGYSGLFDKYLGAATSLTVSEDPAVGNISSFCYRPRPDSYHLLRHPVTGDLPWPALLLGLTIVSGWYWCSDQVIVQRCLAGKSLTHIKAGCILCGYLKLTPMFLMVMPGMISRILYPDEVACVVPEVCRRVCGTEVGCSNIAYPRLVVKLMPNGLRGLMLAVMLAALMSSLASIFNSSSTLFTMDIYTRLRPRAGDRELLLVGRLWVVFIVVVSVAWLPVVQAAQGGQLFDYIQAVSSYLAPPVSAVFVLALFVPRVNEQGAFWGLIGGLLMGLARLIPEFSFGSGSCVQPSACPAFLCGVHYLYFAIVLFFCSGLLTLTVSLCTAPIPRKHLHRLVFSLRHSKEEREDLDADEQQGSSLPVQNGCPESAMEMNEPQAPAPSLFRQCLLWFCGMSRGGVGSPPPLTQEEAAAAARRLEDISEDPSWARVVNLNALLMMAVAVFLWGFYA

[4] = molecular target: T2, Sodium/glucose cotransporter 1 (Homo sapiens, UniProt P13866); assay: Inhibition of full length N-terminal HA-tagged human SGLT1 expressed in HEK293 cells assessed as inhibition of [14C]AMG uptake; type: cell-based
T2 sequence (P13866 whole entry): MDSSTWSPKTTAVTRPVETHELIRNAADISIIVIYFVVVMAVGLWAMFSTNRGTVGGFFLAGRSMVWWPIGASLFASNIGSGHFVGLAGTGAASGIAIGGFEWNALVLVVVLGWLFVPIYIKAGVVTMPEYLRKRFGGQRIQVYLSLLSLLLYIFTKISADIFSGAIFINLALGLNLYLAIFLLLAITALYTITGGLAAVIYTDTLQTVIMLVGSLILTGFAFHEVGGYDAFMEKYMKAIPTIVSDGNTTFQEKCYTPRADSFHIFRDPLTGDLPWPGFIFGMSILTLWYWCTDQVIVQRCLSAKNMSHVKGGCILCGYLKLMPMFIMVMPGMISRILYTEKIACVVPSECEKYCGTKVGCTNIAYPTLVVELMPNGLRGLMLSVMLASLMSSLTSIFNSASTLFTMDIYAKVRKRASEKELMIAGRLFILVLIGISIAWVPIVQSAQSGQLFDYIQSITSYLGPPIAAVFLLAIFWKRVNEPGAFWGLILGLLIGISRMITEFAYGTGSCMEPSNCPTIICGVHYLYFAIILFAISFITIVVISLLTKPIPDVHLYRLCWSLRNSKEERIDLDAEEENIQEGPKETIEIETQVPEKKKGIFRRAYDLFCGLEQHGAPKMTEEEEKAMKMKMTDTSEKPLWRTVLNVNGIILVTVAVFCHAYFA

Homo sapiens = species on record: Homo sapiens; assay: Selectivity ratio of IC50 for full length N-terminal HA-tagged human SGLT1 expressed in HEK293 cells to IC50 for full length N-terminal HA-tagged human SGLT2 expressed in HEK293 cells; type: cell-based
[5] = molecular target: T1, Sodium/glucose cotransporter 2; assay: Inhibition of human SGLT2 expressed in CHO-K1 cells; type: cell-based
[6] = molecular target: T1, Sodium/glucose cotransporter 2; assay: Inhibition of human SGLT2 expressed in CHO cells assessed as inhibition of [14C] labeled AMG accumulation incubated for 15 mins; type: cell-based
[7] = molecular target: T1, Sodium/glucose cotransporter 2; assay: Inhibition of human SGLT2
[8] = molecular target: T1, Sodium/glucose cotransporter 2; assay: Inhibition of human SGLT2 expressed in xenopus oocytes assessed as inhibition of [14C]AMG uptake; type: cell-based, Oocyte
[9] = molecular target: T2, Sodium/glucose cotransporter 1; assay: Inhibition of human SGLT1 expressed in CHO cells assessed as inhibition of [14C] labeled AMG accumulation incubated for 15 mins; type: cell-based
[10] = molecular target: T1, Sodium/glucose cotransporter 2; assay: Inhibition of recombinant human SGLT2 expressed in COS-7 cells assessed as inhibition of [14C]AMG uptake; type: cell-based

COc1ccc(Cc2cc([C@H]3O[C@@H](SC)[C@H](O)[C@@H](O)[C@@H]3O)ccc2Cl)cc1
bioavailability [1]: 87% | half-life [2]: 7 h | IC50 [3]: 2.1 nM | IC50 [4]: 15.9 nM | Ratio IC50 (Homo sapiens): 7.6

CCOC(=O)OC[C@H]1O[C@@H](Oc2ccccc2Cc2ccc(OC)cc2)[C@H](O)[C@@H](O)[C@@H]1O [SERGLIFLOZIN ETABONATE]
Ki [5]: 151 nM

O/N=C/[C@H]1O[C@@H](n2cc(Cc3ccc(C4CC4)cc3)c3c(Cl)cccc32)[C@H](O)[C@@H](O)[C@@H]1O
EC50 [6]: 212 nM

O=C(N/N=C/[C@H]1O[C@@H](n2cc(Cc3ccc(C4CC4)cc3)c3c(Cl)cccc32)[C@H](O)[C@@H](O)[C@@H]1O)c1ccccc1
EC50 [6]: 258 nM

CCOc1ccc(Cc2cc([C@H]3O[C@@H](SC)[C@H](O)[C@@H](O)[C@@H]3O)ccc2Cl)cc1
IC50 [7]: 1.8 nM

CO/N=C/[C@H]1O[C@@H](n2cc(Cc3ccc(C4CC4)cc3)c3c(Cl)cccc32)[C@H](O)[C@@H](O)[C@@H]1O
EC50 [6]: 286 nM

CONC[C@H]1O[C@@H](n2cc(Cc3ccc(C4CC4)cc3)c3c(Cl)cccc32)[C@H](O)[C@@H](O)[C@@H]1O
EC50 [6]: 455 nM

Cc1cc(O)c(C(=O)CCc2ccc3occc3c2)c(O[C@@H]2O[C@H](CO)[C@@H](O)[C@H](O)[C@H]2O)c1
EC50 [8]: 5.2 nM

COC(=O)NNC[C@H]1O[C@@H](n2cc(Cc3ccc(C4CC4)cc3)c3c(Cl)cccc32)[C@H](O)[C@@H](O)[C@@H]1O
EC50 [6]: 63 nM

CC(=O)NNC[C@H]1O[C@@H](n2cc(Cc3ccc(C4CC4)cc3)c3c(Cl)cccc32)[C@H](O)[C@@H](O)[C@@H]1O
EC50 [9]: 37 nM | EC50 [6]: 33 nM

Cc1cc(OCCCNCCC(N)=O)ccc1Cc1c(O[C@@H]2O[C@H](CO)[C@@H](O)[C@H](O)[C@H]2O)n[nH]c1C(C)C
Ki [10]: 13600 nM
